Data taken from US10239875B2, “Naphthyridinyl hydrazine derivatives as potent peripheral analgesic agents” (KING SAUD UNIVERSITY, priority 2017, dated 2019).

Test system: Albino mice
Experiment: mouse writhing test (acetic acid-induced), peripheral analgesic activity
Type: in vivo
Settings: for No. of writhes/20 min: 30 min before i.p. acetic acid 0.7% 10 mL/kg, mean ± S.E.; for Protection (%) / analgesic activity compared with acetylsalicylic acid / placebo control (in words): writhing test; for Protection (%): versus placebo control mean; for analgesic activity compared with acetylsalicylic acid / placebo control (in words): 20 mg/kg orally vs acetylsalicylic acid 150 mg/kg, Dunnett's test P < 0.05
Procedure: The test compounds synthesized in Examples 2-11 were tested for analgesic activity as follows. Albino mice of both sexes (27-30 g body weight each) were used in the experiments. Mice used in this experiment were obtained from the Animal House Colony at the National Research Centre (NRC), Egypt. All animals were housed under standard conditions of natural 12-hour light and dark cycles with free access to food and water. Animals were allowed to adapt to the laboratory environment for one week before use in experimentation. All animal procedures were first approved by the Ethics Committee of the NRC, Egypt, and were performed in accordance with standard recommendations and guidelines for proper care and use of laboratory animals.
The peripheral analgesic activities of compounds 1 to 10 were determined in mice using the standard writhing test. Seventy-two mice were divided into 12 groups of 6 mice. Mice of the first (placebo control) and last (active control) groups were treated orally (p.o.) with the vehicle (5 mL/kg) or acetyl salicylic acid (150 mg/kg), respectively. Animals of the second to eleventh groups were orally given one of the selected compounds at doses of 20 mg/kg. Once 30 minutes passed after administration of medication, each mouse received an intraperitoneal injection of acetic acid (0.7% aqueous solution) in a dose of 10 mL/kg to induce writhing. The mice were then placed in transparent boxes, and the number of writhes per animal was counted for 20 minutes after acetic acid injection. The “protection %” was calculated using the following equation: Protection (%)=[Control mean−Treated mean/Control mean]×100.

[1] = acetylsalicylic acid 150 mg/kg orally in DW
[2] = test compound 20 mg/kg orally in DMSO

CC(=O)Oc1ccccc1C(=O)O [Acetylsalicylic acid, acetylsalicylic acid, reference compound]
No. of writhes/20 min [1]: 17.4 ± 1.57 writhes/20 min
Protection (%) [1]: 78.47%

Cc1ccc2c(NN=Cc3ccc(N4CCOCC4)cc3)cc(C)nc2n1 [Compound 1]
No. of writhes/20 min [2]: 24.8 ± 1.02 writhes/20 min
Protection (%) [2]: 69.31%
analgesic activity compared with acetylsalicylic acid / placebo control (in words): analgesic activity close to that of acetylsalicylic acid

Cc1ccc2c(NN=Cc3ccc(N4CCNCC4)cc3)cc(C)nc2n1 [Compound 2]
No. of writhes/20 min [2]: 39.6 ± 3.14 writhes/20 min
Protection (%) [2]: 50.99%

Cc1ccc2c(NN=Cc3ccc(N4CCCCC4)cc3)cc(C)nc2n1 [Compound 3]
No. of writhes/20 min [2]: 36.2 ± 2.58 writhes/20 min
Protection (%) [2]: 55.20%

Cc1ccc2c(NN=Cc3ccc(N4CCN(C)CC4)cc3)cc(C)nc2n1 [Compound 4]
No. of writhes/20 min [2]: 44.8 ± 2.85 writhes/20 min
Protection (%) [2]: 44.55%

CC(=NNc1cc(C)nc2nc(C)ccc12)c1ccc(N2CCOCC2)cc1 [Compound 5]
No. of writhes/20 min [2]: 29.2 ± 2.50 writhes/20 min
Protection (%) [2]: 63.86%

CC(=NNc1cc(C)nc2nc(C)ccc12)c1ccc(N2CCNCC2)cc1 [Compound 6]
No. of writhes/20 min [2]: 26.2 ± 1.32 writhes/20 min
Protection (%) [2]: 67.57%
analgesic activity compared with acetylsalicylic acid / placebo control (in words): analgesic activity close to that of acetylsalicylic acid

CC(=NNc1cc(C)nc2nc(C)ccc12)c1ccc(N2CCCCC2)cc1 [Compound 7]
No. of writhes/20 min [2]: 23.6 ± 2.16 writhes/20 min
Protection (%) [2]: 70.79%
analgesic activity compared with acetylsalicylic acid / placebo control (in words): analgesic activity close to that of acetylsalicylic acid
